The record followed here is patent US10457672B2, “γ-diketones as Wnt/β-catenin signaling pathway activators” (Samumed, LLC, priority 2013, dated 2019).

This assay deals with Wnt/β-catenin signaling pathway (Wnt-responsive SP5 promoter luciferase reporter in SW480 cells). The experiment in a line: Wnt reporter (SP5 promoter-firefly luciferase) activation assay in SW480 cells. It is filed as cell-based. The conditions noted are these: Homo sapiens; SW480 colon cancer cells with SP5 promoter luciferase reporter; 24 h after compound addition; normalized to DMSO; concentration at half maximal activation. On the procedure:
Compounds that enhance the Wnt activity, or Activators, were assayed as follows. Reporter cell lines were generated by stably transducing cells of colon cancer cell lines (with a lentiviral construct that included a Wnt-responsive promoter driving expression of the firefly luciferase gene).
Lentiviral constructs were made in which the SP5 promoter, a promoter having eight TCF/LEF binding sites derived from the SP5 promoter, was linked upstream of the firefly luciferase gene. The lentiviral constructs also included a hygromycin resistance gene as a selectable marker. The SP5 promoter construct was used to transduce SW480 cells, a colon cancer cell line having a mutated APC gene that generates a truncated APC protein, leading to de-regulated accumulation of β-catenin.
Cultured SW480 cells bearing a reporter construct were distributed at approximately 10,000 cells per well into 384- or 96-well multiwell plates. Compounds from a small molecule compound library were then added to the wells in half-log dilutions using a maximum concentration of three or ten micromolar. A series of control wells for each cell type received only buffer and compound solvent DMSO. Twenty-four hours after the addition of compound, reporter activity for luciferase was assayed, for example, by addition of the BrightGlo luminescence reagent (Promega) and the Victor3 plate reader (Perkin Elmer). Readings were normalized to DMSO only treated cells, and any activities above DMSO were considered activation. Compounds were considered activators if reporter activities were 2× fold or greater than DMSO. EC50 is the concentration at half maximal activation.
For orientation: A reporter such as luciferase makes a cellular process visible.
One may read the EC50 as the concentration that produces a half-maximal response. For the compound `COc1ccc(C(=O)CCC(=O)c2ccc(C)cc2)cc1OC` [Compound 426, 1-(3,4-Dimethoxyphenyl)-4-(p-tolyl)butane-1,4-dione], the response was half-maximal at 8800 nM (EC50).

`O=C(CCC(=O)c1ccccc1F)c1ccc2[nH]cnc2c1` [Compound 265, 1-(1H-Benzo[d]imidazol-5-yl)-4-(2-fluorophenyl)butane-1,4-dione] returned an EC50 of 201 nM.

On to `COc1ccccc1C(=O)CCC(=O)c1ccc2[nH]ccc2c1` [Compound 255, 1-(1H-Indol-5-yl)-4-(2-methoxyphenyl)butane-1,4-dione], for which a half-maximal response (EC50) required 17 nM.

Take `O=C(CCC(=O)c1ccc2c(c1)OCO2)c1ccccc1` [Compound 222, 1-(Benzo[d][1,3]dioxol-5-yl)-4-phenylbutane-1,4-dione]: a half-maximal response (EC50) required 3 nM.

In the case of `Cc1cccc(C(=O)CCC(=O)c2ccc3occc3c2)c1` [Compound 456, 1-(Benzofuran-5-yl)-4-(m-tolyl)butane-1,4-dione], a half-maximal effect (EC50) was put at 673 nM.

Take `O=C(CCC(=O)c1ncccn1)c1ccc2c(c1)CCCO2` [Compound 362, 1-(Chroman-6-yl)-4-(pyrimidin-2-yl)butane-1,4-dione]: the EC50 was 188 nM.

In the case of `O=C(CCC(=O)c1ccccc1C(F)(F)F)c1ccc2[nH]ncc2c1` [Compound 498, 1-(1H-Indazol-5-yl)-4-(2-(trifluoromethyl)phenyl)butane-1,4-dione], the EC50 worked out at 12 nM.

In turn, `O=C(CCC(=O)c1ccccn1)c1ccc2[nH]ccc2c1` [Compound 258, 1-(1H-Indol-5-yl)-4-(pyridin-2-yl)butane-1,4-dione] yielded an EC50 of 16 nM.

`COc1ccccc1C(=O)CCC(=O)c1ccc2occc2c1` [Compound 281, 1-(Benzofuran-5-yl)-4-(2-methoxyphenyl)butane-1,4-dione] returned an EC50 of 61 nM.

`Cc1cccc(C(=O)CCC(=O)c2n[nH]c3ccccc23)c1` [Compound 529, 1-(1H-Indazol-3-yl)-4-(m-tolyl)butane-1,4-dione] displayed an EC50 of 695 nM.

Take `O=C(CCC(=O)c1cc2c(c(O)c1O)OCCO2)c1ccccc1` [Compound 4, 1-(7,8-dihydroxy-2,3-dihydrobenzo[b][1,4]dioxin-6-yl)-4-phenylbutane-1,4-dione]: the EC50 was greater than 10000 nM.

The compound `O=C(CCC(=O)c1ccccc1F)c1ccc2c(c1)CCCO2` [Compound 71, 1-(Chroman-6-yl)-4-(2-fluorophenyl)butane-1,4-dione] displayed a concentration giving a half-maximal response (EC50) of 2.5 nM.

Turning to `O=C(CCC(=O)c1ccc2c(c1)OCO2)c1cccc(F)c1` [Compound 214, 1-(Benzo[d][1,3]dioxol-5-yl)-4-(3-fluorophenyl)butane-1,4-dione], the EC50 was 10 nM.

`O=C(CCC(=O)c1ccco1)c1ccc2c(c1)CCCO2` [Compound 365, 1-(Chroman-6-yl)-4-(furan-2-yl)butane-1,4-dione] had an EC50 of 33 nM.

The compound `O=C(CCC(=O)c1ccc2ocnc2c1)c1ccccc1` [Compound 300, 1-(Benzo[d]oxazol-5-yl)-4-phenylbutane-1,4-dione] gave an EC50 of 18 nM.

`COc1cccc(C(=O)CCC(=O)c2ccc3[nH]cnc3c2)c1` [Compound 269, 1-(1H-Benzo[d]imidazol-5-yl)-4-(3-methoxyphenyl)butane-1,4-dione] registered a half-maximal effective concentration (EC50) greater than 10000 nM.

`O=C(CCC(=O)c1ccccc1F)c1ccc2occc2c1` [Compound 278, 1-(Benzofuran-5-yl)-4-(2-fluorophenyl)butane-1,4-dione] showed an EC50 of 18 nM.

`O=C(CCC(=O)c1ccccc1C(F)(F)F)c1ccc2[nH]ccc2c1` [Compound 249, 1-(1H-Indol-5-yl)-4-(2-(trifluoromethyl)phenyl)butane-1,4-dione] returned an EC50 of 4 nM.

As for `Cc1cccc(C(=O)CCC(=O)c2ccc3c(c2)OCCO3)c1` [Compound 343, 1-(2,3-Dihydrobenzo[b][1,4]dioxin-6-yl)-4-(m-tolyl)butane-1,4-dione], a half-maximal effect (EC50) was put at 351 nM.

For `COc1ccc(C(=O)CCC(=O)c2ccccn2)cc1OC` [Compound 207, 1-(3,4-Dimethoxyphenyl)-4-(pyridin-2-yl)butane-1,4-dione], the EC50 was greater than 10000 nM.

Compound `O=C(CCC(=O)c1ccccn1)c1ccc2[nH]ncc2c1` [Compound 507, 1-(1H-Indazol-5-yl)-4-(pyridin-2-yl)butane-1,4-dione] had an EC50 of 36 nM.

With `O=C(CCC(=O)c1cccc2c1OCCO2)c1ccccc1` [Compound 248, 1-(2,3-Dihydrobenzo[b][1,4]dioxin-5-yl)-4-phenylbutane-1,4-dione], the concentration for a half-maximal effect (EC50) was greater than 10000 nM.

Compound `O=C(CCC(=O)c1c[nH]c2ccccc12)c1ccc(C(F)(F)F)cc1` [Compound 316, 1-(1H-Indol-3-yl)-4-(4-(trifluoromethyl)phenyl)butane-1,4-dione] yielded an EC50 greater than 10000 nM.

The compound `O=C(CCC(=O)c1cccnn1)c1ccc2c(c1)OCCO2` [Compound 341, 1-(2,3-Dihydrobenzo[b][1,4]dioxin-6-yl)-4-(pyridazin-3-yl)butane-1,4-dione] showed an EC50 of 95 nM.

With `O=C(CCC(=O)c1ccc2c(c1)SCCO2)c1ccccc1` [Compound 28, 1-(2,3-Dihydrobenzo[b][1,4]oxathiin-6-yl)-4-phenylbutane-1,4-dione], the response was half-maximal at 9 nM (EC50).

Consider `O=C(CCC(=O)c1ccccc1C(F)(F)F)c1ccccn1` [Compound 541, 1-(Pyridin-2-yl)-4-(2-(trifluoromethyl)phenyl)butane-1,4-dione], for which the EC50 amounted to 2810 nM.

In turn, `COc1ccccc1C(=O)CCC(=O)c1ccc2c(c1)OCCC2` [Compound 61, 1-(Chroman-7-yl)-4-(2-methoxyphenyl)butane-1,4-dione] returned an EC50 of 25 nM.

Turning to `O=C(CCC(=O)c1ncccc1Cl)c1ccc2c(c1)OCCO2` [Compound 767, 1-(3-Chloropyridin-2-yl)-4-(2,3-dihydrobenzo[b][1,4]dioxin-6-yl) butane-1,4-dione], the EC50 amounted to 2.16 nM.

With `O=C(CCC(=O)c1cccs1)c1ccc2c(c1)OCO2` [Compound 374, 1-(Benzo[d][1,3]dioxol-5-yl)-4-(thiophen-2-yl)butane-1,4-dione], the concentration for a half-maximal effect (EC50) was 13 nM.

On to `O=C(CCC(=O)c1ccccn1)c1ccc2sccc2c1` [Compound 310, 1-(Benzo[b]thiophen-5-yl)-4-(pyridin-2-yl)butane-1,4-dione], for which the midpoint of the response, the EC50, lay at 68 nM.

For the compound `COc1ccccc1C(=O)CCC(=O)c1cccs1` [Compound 562, 1-(2-Methoxyphenyl)-4-(thiophen-2-yl)butane-1,4-dione], the midpoint of the response, the EC50, lay at 106 nM.

As to `O=C(CCC(=O)c1ccc2c(c1)OCCO2)c1cccnc1` [Compound 14, 1-(2,3-dihydrobenzo[b][1,4]dioxin-6-yl)-4-(pyridin-3-yl)butane-1,4-dione], the midpoint of the response, the EC50, lay at 306 nM.

In the case of `O=C(CCC(=O)c1ccc2c(c1)SCCO2)c1ccc(F)cc1` [Compound 21, 1-(2,3-Dihydrobenzo[b][1,4]oxathiin-6-yl)-4-(4-fluorophenyl)butane-1,4-dione], it took 31 nM to reach a half-maximal effect (EC50).

As for `COc1cccc(C(=O)CCC(=O)c2ccc3c(c2)OCO3)c1` [Compound 217, 1-(Benzo[d][1,3]dioxol-5-yl)-4-(3-methoxyphenyl)butane-1,4-dione], the EC50 was 343 nM.

Consider `O=C(CCC(=O)c1ccccc1F)c1ccc2[nH]ccc2c1` [Compound 252, 1-(2-Fluorophenyl)-4-(1H-indol-5-yl)butane-1,4-dione], for which the EC50 was 1 nM.
